# From US9751832B2, “Selective histone deactylase 6 inhibitors” (H. LEE MOFFITT CANCER CENTER AND RESEARCH INSTITUTE, INC., priority 2013, dated 2017)
# Where two headings read alike, the source gives them in different places.
# Legend:
# HDAC1 = HDAC1 (Homo sapiens (Human), UniProt Q13547); assay: HDAC inhibition assay, HDAC1; assay type: biochemical
# HDAC6 = HDAC6 (Homo sapiens (Human), UniProt Q9UBN7); assay: HDAC inhibition assay, HDAC6; assay type: biochemical
# [1] = tested on: NRAS and BRAF mutant human melanoma cell lines; assay: Cell proliferation of human melanoma cell lines (MTS, 24 h); assay type: cell-based
# Method: Cell proliferation was evaluated using various pan- and isotype selective HDACi in a broad panel of human melanoma cell lines. Briefly, cells were plated at 10×10^3/well in a 96 well flat bottom plate. The following day, media was changed to that containing different concentrations of HDACi or matched DMSO vehicle concentrations diluted in complete medium done in triplicate, all with a final concentration of less than 0.1% DMSO. Cells were incubated for 24 hours at 37° C. and 5% CO2. […] All values were then normalized and expressed as a percentage of medium control growth.
# [2] = tested on: acetyl-tubulin and acetyl-histone3 in human melanoma cell lines; assay: Western blot of HDAC substrate acetylation in human melanoma cell lines; assay type: cell-based; settings: for acetyl-tubulin and acetylation status of Histone 3: WM795 cells, 24 hrs, FIG. 47
# Method: To confirm the selectivity of isotype specific HDACi, Western blot analysis was performed on the acetylation status of known HDAC substrates including histone H3 and H4, which are known Class I HDAC targets, and α-tubulin, a target for HDAC6. The doses required to impart the anti-proliferative effect coincided with that needed to increase acetylation of the respective HDAC substrates (FIG. 41F-41H). […] Conversely, HDAC6 selective inhibitors (HDAC6i) increase α-tubulin acetylation but not histone acetylation (FIG. 41F).
# [3] = tested on: MHC expression on melanoma cells; assay: Surface marker analysis of melanoma cells by flow cytometry; assay type: cell-based, human and murine; settings: 3 μM, 48 hours, B16 and WM793
# Method: For surface marker analysis melanoma cells were treated with TubastatinA or DMSO for 48 hrs, and/or using Non target and HDAC6KD cell lines, Cells were singly stained with phycoerythryn (PE) conjugated antibodies against MHC I, MHC II, CD40, CD80, CD86. Conjugated antibodies were purchases from eBioscience (San Diego, Calif., USA). After staining for 30 minutes at 4° C., cells were washed three times and then resuspended in buffer containing DAPI (50 ng/mL) for viability. At least 10,000 events were collected using an LSR II (BD) and subsequently analyzed using FlowJo software.2.2.7.
# B16 melanoma = assay: In vivo B16 melanoma tumor growth in C57BL/6 mice; settings: for Tumor growth: 25 mg/kg, intraperitoneal, three times weekly
# [4] = tested on: JAK2/STAT3 phosphorylation in B16 murine melanoma cells; assay: JAK2/STAT3 phosphorylation in B16 melanoma in vivo
# macrophages = assay: Tubastatin A treatment of macrophages (APCs) in vitro; assay type: cell-based
# antigen-specific T-cells = assay: In vivo antigen-specific T-cell response to vaccination; set-up: species or system mice; settings: in vivo treatment
# [5] = tested on: STAT3 phosphorylation in APCs; assay: STAT3 phosphorylation and recruitment to the IL-10 gene promotor in APCs; assay type: cell-based
# MCL = assay: In vivo treatment of MCL-bearing mice
# [6] = tested on: melanoma antigens gp100, MART1, TYRP1 and TYRP2; assay: Expression of tumor antigens in human melanoma cells (qRT-PCR); assay type: cell-based; settings: 48 hours
# Method: (D) Expression of tumor antigens was measured in human WM164 non-target and HDAC6KD cells. (E) Expression of tumor antigens mart-1 and gp-100 was measured by western blot.
# [7] = tested on: human melanoma cell lines; assay: Cell cycle analysis by propidium iodide staining; assay type: cell-based; settings: FACS
# Method: Cells were treated with indicated doses of HDAC inhibitors or DMSO control and then trypsinized, washed, and rendered into a single cell suspension in 1 mL of DPBS. 4 mL ice cold 200 proof ethyl alcohol was added dropwise while vortexing to fix cells. Samples were washed and resuspended in 75% ethanol solution overnight. Then, cells were washed in PBS+0.1% Triton X-100 and counted. Equal numbers of cells were then stained in a solution containing 10 μg/mL RNAseA+1 μg/mL propidium iodide for 2 hours at room temperature. Data was then acquired using a FACSCaliber with at least 10,000 events collected. Cell cycle analysis was completed using ModFit LT (Verity Software House, Topsham, Me.).
# B16 WT melanoma = assay: In vivo B16 melanoma tumor growth in SCID mice
# Excerpt: To further characterize the relative contribution of anti-tumor immunity, specific subsets of cells were depleted via antibody depletion, which was confirmed by staining leukocytes from spleen. […] Taken together, these observations support the anti-melanoma activity of a functional immune system after HDAC6 inhibition.
# [8] = tested on: HuT-78, murine MCL, B16 and SM1 cells; assay: Cell viability of cancer cells (CellTiter 96 Aqueous ONE); assay type: cell-based, human and murine; settings: 24 hrs, compared to DMSO
# Method: Human cutaneous T-cell lymphoma (CTCL) HuT-78 (A), murine mantle cell lymphoma (MCL) (B), and murine melanoma B16 (C) and SM1 (D) cells were incubated with JB7-19, JB7-22, JB720 at different concentrations for 24 hrs. Cell viability was measured using CellTiter 96 Aqueous ONE solution (Promega, Madison, Wis.) and compared to DMSO treated control samples. Error bars represent standard deviation from triplicates.
# [9] = tested on: IL-10 production in PEM and RAW264.7 cells; assay: IL-10 production in antigen presenting cells (ELISA); assay type: cell-based, murine; settings: 24 hrs
# Method: Murine peritoneal elicited primary macrophages (PEM)(A) and murine RAW264.7 (B) cells were incubated with JB7-19, JB7-22, JB720 at the concentration indicated on each chart. After 24 hrs, the production of IL-10 was measured by ELISA.
# [10] = tested on: B16 murine melanoma cells; assay: B16 melanoma cell growth inhibition assay (MTS); assay type: cell-based; settings: 48 h
# Method: B16 murine melanoma cells were plated at 5×10^3/well in 96 well flat bottom plates. The following day, media was changed to that containing various concentrations of HDACi or matched DMSO vehicle concentrations diluted in complete medium done in triplicate. […] Briefly, 20 μL of reagent were added per well and incubated at 37° C. for 3 hours.
# [11] = tested on: acetyl-α-tubulin and acetyl-H3 in B16 melanoma cells; assay: Tubulin and histone acetylation Western blot assay; assay type: cell-based, murine
# Method: […]. B16 melanoma cells were plated at 10^5 cells/well in 12 well plates and allowed to adhere overnight. A 50 mM stock of compound was then added by serial dilutions in complete medium to the indicated concentrations. Cells were incubated for 24 h under humidified conditions (37° C., 5% CO2). Wells were then washed with cold PBS, and cells were lysed in a buffer containing 10 mM Tris-HCl pH 8.0, 10% SDS, […], 100 mM DTT, and 1× protease inhibitor (Roche). Cells were lysed for 30 min on ice and then sonicated for 8 min (8 cycles of 30 s on/30 s rest). Cells were then boiled for 10 min with 6× gel loading buffer and resolved on 4-15% gradient gels and subsequently transferred onto nitrocellulose membranes. Membranes were blocked with 5% milk in PBS-T and detection of specific antigens using antibodies against acetyl-H3 and H3 (Cell Signaling), and acetyl-α-tubulin and α-tubulin (Sigma). Bands were detected by scanning blots with LI-COR Odyssey imaging system using both 700 and 800 channels.
# [12] = Table 2, cyclic urea compounds, read-out: HDAC1 IC50
# [13] = Table 2, cyclic urea compounds, read-out: HDAC6 IC50
# [14] = Table 1B, read-out: IC50 (μM) HDAC1
# [15] = Table 1B, read-out: IC50 (μM) HDAC6
# HDAC1, sequence (Q13547 whole entry): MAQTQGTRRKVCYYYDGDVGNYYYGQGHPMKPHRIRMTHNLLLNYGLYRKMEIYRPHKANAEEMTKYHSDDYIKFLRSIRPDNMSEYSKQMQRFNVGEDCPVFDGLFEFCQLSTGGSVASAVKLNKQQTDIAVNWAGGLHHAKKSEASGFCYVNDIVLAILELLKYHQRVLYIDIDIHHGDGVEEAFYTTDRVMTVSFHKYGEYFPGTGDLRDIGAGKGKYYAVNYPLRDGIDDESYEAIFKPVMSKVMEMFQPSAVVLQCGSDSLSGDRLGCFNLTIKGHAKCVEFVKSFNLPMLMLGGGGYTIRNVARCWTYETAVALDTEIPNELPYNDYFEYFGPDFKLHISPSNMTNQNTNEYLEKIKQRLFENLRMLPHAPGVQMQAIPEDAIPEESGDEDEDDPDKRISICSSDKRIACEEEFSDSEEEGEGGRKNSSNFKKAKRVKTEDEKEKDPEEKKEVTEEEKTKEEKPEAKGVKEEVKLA
# HDAC6, sequence (Q9UBN7 whole entry): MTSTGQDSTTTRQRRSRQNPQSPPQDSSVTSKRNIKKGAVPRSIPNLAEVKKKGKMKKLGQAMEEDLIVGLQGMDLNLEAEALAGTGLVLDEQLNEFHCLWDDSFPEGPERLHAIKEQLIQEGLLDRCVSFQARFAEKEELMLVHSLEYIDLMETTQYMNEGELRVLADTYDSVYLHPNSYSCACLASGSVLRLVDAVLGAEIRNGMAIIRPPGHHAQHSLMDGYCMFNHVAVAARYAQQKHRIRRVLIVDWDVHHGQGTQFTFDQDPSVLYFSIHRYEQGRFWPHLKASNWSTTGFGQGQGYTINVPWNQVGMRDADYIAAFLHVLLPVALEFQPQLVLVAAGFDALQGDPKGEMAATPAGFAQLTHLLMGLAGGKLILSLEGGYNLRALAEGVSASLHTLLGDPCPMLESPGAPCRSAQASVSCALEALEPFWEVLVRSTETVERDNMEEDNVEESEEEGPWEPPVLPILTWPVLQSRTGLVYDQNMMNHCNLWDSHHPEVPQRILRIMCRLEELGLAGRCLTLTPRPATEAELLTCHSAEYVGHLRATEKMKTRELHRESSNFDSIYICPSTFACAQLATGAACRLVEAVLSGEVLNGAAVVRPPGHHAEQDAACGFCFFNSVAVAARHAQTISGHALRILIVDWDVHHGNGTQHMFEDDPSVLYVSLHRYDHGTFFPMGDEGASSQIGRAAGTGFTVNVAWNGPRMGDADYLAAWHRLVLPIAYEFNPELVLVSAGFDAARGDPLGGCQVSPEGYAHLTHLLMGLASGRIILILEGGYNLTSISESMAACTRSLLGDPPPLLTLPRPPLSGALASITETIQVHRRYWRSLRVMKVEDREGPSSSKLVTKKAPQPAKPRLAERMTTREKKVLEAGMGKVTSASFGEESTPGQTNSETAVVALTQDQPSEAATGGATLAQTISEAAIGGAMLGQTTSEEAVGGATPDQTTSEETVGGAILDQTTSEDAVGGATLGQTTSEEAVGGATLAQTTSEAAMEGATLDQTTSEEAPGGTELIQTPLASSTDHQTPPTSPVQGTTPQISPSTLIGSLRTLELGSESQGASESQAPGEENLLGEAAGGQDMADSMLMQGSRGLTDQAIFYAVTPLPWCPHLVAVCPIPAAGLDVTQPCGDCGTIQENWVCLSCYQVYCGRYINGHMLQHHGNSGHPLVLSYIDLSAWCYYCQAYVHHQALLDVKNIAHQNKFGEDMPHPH
molecule,measurement,setting,value
O=C(NO)c1ccc(CN2C(=O)N[C@@H](Cc3ccccc3)C2=O)cc1 [Compound 11a],IC50,HDAC1; [12],7.56 µM
same,Fold Selective (HDAC1/HDAC6),"HDAC6; Table 2, cyclic urea compounds",295 fold
same,IC50,HDAC6; [13],0.0256 µM
COc1ccccc1N1C(=O)N(Cc2ccc(C(=O)NO)cc2)C(C)(C)C1=O [Compound 10a],IC50,HDAC1; [12],28.6 µM
same,Fold Selective (HDAC1/HDAC6),"HDAC6; Table 2, cyclic urea compounds",386 fold
same,IC50,HDAC6; [13],0.0742 µM
CN1CCc2c(c3ccccc3n2Cc2ccc(C(=O)NO)cc2)C1 [Tubastatin A],"Inhibition of proliferation, effective concentration range (in words)",[1],low micromolar range
same,acetyl-tubulin and acetylation status of Histone 3,[2],increase acetyl-tubulin without modifying the acetylation status of Histone 3
same,Expression of MHC I,[3],increase of MHC1
same,Tumor growth,B16 melanoma,delayed tumor growth
same,Anti-melanoma effect in vivo,B16 melanoma; alone or in combination with anti-CLTA4,anti-melanoma effect
same,JAK2/STAT3 phosphorylation,[4],inhibits JAK2/STAT3 phosphorylation
same,T-cell activation by treated macrophages,macrophages; in vitro,better activators of naIve T-cells
same,Expression of co-stimulatory molecules,macrophages; macrophages,increased the expression of co-stimulatory molecules
same,IL-10 production,macrophages; macrophages,inhibits IL-10 production
same,Antigen-specific T-cell responses to vaccination,antigen-specific T-cells,enhances antigen-specific T-cell responses
same,STAT3 phosphorylation,[5],decreased STAT3 phosphorylation
same,Antitumor effect,MCL,strong antitumor effect
same,Expression of melanoma antigens at the mRNA level,[6],upregulation of melanoma antigens
Nc1ccccc1NC(=O)c1ccc(CNc2nccc(-c3cccnc3)n2)cc1 [MGCD0103],"Inhibition of proliferation, effective concentration range (in words)",[1],low micromolar range
same,acetylation of α-tubulin,"[2]; Western blot, FIG. 41",unchanged
same,Cell cycle effects,[7],variable cell cycle effects
COc1ccccc1NC(=O)NCc1ccc(C(N)=O)cc1 [Compound 1],IC50,"HDAC1; Table 1A, mean of two experiments ± standard deviation, read-out: HDAC1 IC50",0.265 ± 0.059 µM
same,IC50,"HDAC6; Table 1A, mean of two experiments ± standard deviation, read-out: HDAC6 IC50",0.139 ± 0.027 µM
Nexturastat B,In vivo growth of B16 WT melanoma compared with control treatment,B16 WT melanoma,not significantly different
"CCCCN(Cc1ccc(C(=O)NO)cc1)C(=O)Nc1ncccn1 [JB6-22, 4-((1-butyl-3-(pyrimidin-2-yl)ureido)methyl)-N-hydroxybenzamide]",IC50,HDAC1; [14],2.74 µM
same,Selectivity (HDAC1/−6),HDAC6; Table 1B,281
same,IC50,HDAC6; [15],0.00976 µM
same,acetyl-tubulin and acetylation status of Histone 3,[2],increase acetyl-tubulin without modifying the acetylation status of Histone 3
same,Cell proliferation of cancer cells,[8],decrease cell proliferation
same,IL-10 production in antigen presenting cells,[9],inhibit IL-10 production
"COc1ccccc1NC(=O)N(CCCO)Cc1ccc(C(=O)NO)cc1 [Compound 5b, N-hydroxy-4-((1-(3-hydroxypropyl)-3-(2-methoxyphenyl)ureido)methyl)-benzamide]",Growth inhibition of B16 melanoma cells (in words),[10],performed very poorly
"COCCCN(Cc1ccc(C(=O)NO)cc1)C(=O)Nc1ccccc1 [Compound 5e, N-hydroxy-4-((1-(3-methoxypropyl)-3-phenylureido)methyl)benzamide]",Fold Selective (HDAC1/HDAC6),HDAC6; Table 1A,> 400 fold
"CCCCN(Cc1ccc(C(=O)NO)cc1)C(=O)Nc1ccccc1 [Compound 5g, 4-((1-butyl-3-phenylureido)methyl)-N-hydroxybenzamide]",Growth inhibition of B16 melanoma cells (in words),[10],capable of inhibiting the growth
same,histone H3 acetylation,[11]; concentrations of 1 and 10 μM,observable increase
same,acetyl α-tubulin levels,"[11]; low nanomolar treatment, 24 h",dose-dependant increase
same,histone H3 acetylation,"[11]; low nanomolar treatment, 24 h",without a concamanent elevation
same,acetyl-tubulin and acetylation status of Histone 3,[2],increase acetyl-tubulin without modifying the acetylation status of Histone 3
same,Tumor growth,B16 melanoma,delayed tumor growth
same,Expression of melanoma antigens at the mRNA level,[6],upregulation of melanoma antigens
CC(C)[C@@H]1C(=O)N(c2ccccc2)C(=O)N1Cc1ccc(C(=O)NO)cc1 [Compound 10b],IC50,HDAC1; [12],11.8 µM
same,Fold Selective (HDAC1/HDAC6),"HDAC6; Table 2, cyclic urea compounds",531 fold
same,IC50,HDAC6; [13],0.0222 µM
CCCCN(Cc1ccc(C(=O)NO)cc1)C(=O)Nc1cccc(N(C)C)c1 [JB7-20],Selectivity (HDAC1/−6),HDAC6; Table 1B,99
"CCCCN(Cc1ccc(C(=O)NO)cc1)C(=O)Nc1ccc2cn[nH]c2c1 [JB7-19, 4-((1-butyl-3-(1H-indazol-6-yl)ureido)methyl)-N-hydroxybenzamide]",IC50,HDAC1; [14],0.721 µM
same,Selectivity (HDAC1/−6),HDAC6; Table 1B,284
same,IC50,HDAC6; [15],0.00254 µM
same,acetyl-tubulin and acetylation status of Histone 3,[2],increase acetyl-tubulin without modifying the acetylation status of Histone 3
same,Cell proliferation of cancer cells,[8],decrease cell proliferation
same,IL-10 production in antigen presenting cells,[9],inhibit IL-10 production
"O=C(NO)c1ccc(CN(CCc2ccccc2)C(=O)Nc2ccccc2)cc1 [Compound 5h, N-hydroxy-4-((1-phenethyl-3-phenylureido)methyl)benzamide]",Growth inhibition of B16 melanoma cells (in words),[10],capable of inhibiting the growth
